Data set [1] can be described thus: Dissolution of MH in the SEDDS vehicle of Example 1. Type of data set: physicochemical. As for the experimental part:
Preparation of MH in SEDDS vehicle. • 1. The SEDDS vehicle of the oral composition of Example 1 was warmed up separately to 42° C. for 13 min. In order to prepare about 5% (g/vol) MH solution, the vehicle (380 mg) was added to MH (22.8 mg) directly and vortexed for 60 sec to obtain the oral composition. • 2. The SEDDS vehicle of the oral composition of Example 1 was warmed up separately to 52° C. for 15 min. In order to prepare about 5% (g/vol) MH solution, the vehicle (380.18 mg) was added to MH (21.2 mg) directly and vortexed for 100 sec to obtain the oral composition. Then the solution was warmed up to 50° C. for 10 min. Then the solution was warmed up to 57° C. for 13 min and vortexed for 180 sec. • 3. The SEDDS vehicle of the oral composition of Example 1 was warmed up separately to 55° C. for 15 min. In order to prepare about 1% (g/vol) MH solution, the vehicle (396 mg) was added to MH (4 mg) directly and vortexed for 60 sec to obtain the oral composition. Then the solution was warmed up to 55° C. for 10 min and vortexed for 60 sec.

Data set [2] is described as follows: Dissolution of MH in oral formulations V-01, V-02, V-03. Type of data set: physicochemical. As for the experimental part:
The solution of 4-O-methylhonokiol (MH) was prepared in oral formulation according to Table 1 below.

Data set [3] deals with mouse model of schizophrenia (PCP). The data set is described as follows: Forced-swimming test after oral BCP in canola oil, PCP mouse model of schizophrenia. The data set is classed as in vivo, mice. As for the experimental part:
(§1) The mouse model of schizophrenia was established.
BCP was diluted in canola oil.
BCP (10 mg/kg diluted in canola oil) was administered to adolescent mice (PND 4362) by gavage twice a week (on Sunday and Wednesday) for 3 weeks, a total of 6 gavages. Control group and PCP-induced group received by gavage the oil vehicle.
Training was conducted for 6 min a day before the test. Each mouse was placed into a transparent glass cylinder filled with fresh water at 25° C. On the test day, the total dilation/frequency of immobility and climbing was counted every 2 minutes for 6 minutes. An increased immobility is an index of learning and habituation, therefore a positive behavioral adaptation with a stressful condition.

The conditions of data set [4]: air exposed, after 5 weeks; cited from earlier work.
Data set [5] is described as follows: Body weight of mice treated orally with BCP in SEDDS. The data set is classed as in vivo. The note with it: 5 mg/kg BCP in SEDDS oral composition, gavage, adolescent mice. As for the experimental part:
(§2) BCP (5 mg/kg or 10 mg/kg in diluted self-emulsifying vehicle (Example 1)) was administered to adolescent mice (10 μl/g) by gavage twice a week (on Sunday and Wednesday) for 3 weeks (PND 43-62), a total of 6 injections. Control group and PCP-induced group received by gavage the oral formulation solution without the drug.

For data set [6], the system named is mouse model of schizophrenia (PCP). Briefly: Open field test after oral BCP in SEDDS, PCP mouse model of schizophrenia. The data set is classed as in vivo. The note with it: 5 mg/kg BCP in SEDDS oral formulation, gavage, adolescent mice. As for the experimental part: as §1
(§3) Sterile double-distilled water (DDW) was warmed for […] in a pre-warmed thermobath (35-38° C.). The SEDDS vehicle of the oral composition of Example 1 was warmed up separately to 35-38° C. for 10 min. In order to prepare BCP (5 mg/ml) for a final dose of 10 mg/kg, BCP (5 mg) was added directly into the vehicle (1 ml) and vortexed for 1 min to obtain the oral composition. Then the warmed sterile DDW (4 ml) at 35-38° C. was added at a ratio of 1:5 oral composition: DDW dilution and the diluted composition was vortexed for 1 min. In order to prepare BCP for a final dose of 5 mg/kg, 500 μl of BCP at 5 mg/ml were diluted with 500 μl SEDDS vehicle (1:2 dilution). Then the warmed sterile DDW (4 ml) at 35-38° C. was added at a ratio of 1:5 oral composition. DDW dilution and the diluted composition was vortexed for 1 min.
(§4) BCP (5 mg/kg or 10 mg/kg in diluted self-emulsifying vehicle (Example 1)) was administered to adolescent mice (10 μl/g) by gavage twice a week (on Sunday and Wednesday) for 3 weeks (PND 43-62), a total of 6 injections. […]
Each mouse was placed into the center of a clear open Plexiglas Chamber (40 cm*32 cm*30 cm) which its floor was divided to squares of 4 cm×5 cm. […] Ambulation behavior was manually counted for 8 min and data were collected in 2 min intervals.

Data set [7] has the same test system. Briefly: Forced-swimming test after oral BCP in SEDDS, PCP mouse model of schizophrenia. Type of data set: in vivo. The note with it: gavage twice a week for 3 weeks, adolescent mice. As for the experimental part: as §1, §3, §2
Training was conducted for 6 min a day before the test. […] On the test day, the total duration/frequency of immobility and climbing was counted every 2 minutes for 6 minutes. […]

The test system is the same in data set [8]. The data set is described as follows: Social interaction test in a novel environment after oral BCP in SEDDS, PCP mouse model. The data set is classed as in vivo. The conditions noted are these: 5 mg/kg BCP in SEDDS oral composition, gavage, adolescent mice. As for the experimental part:
as §1, §3, §4
Each mouse was placed in a novel cage together with a nonaggressive intruder mouse, of the same species, same sex and a similar age. The interaction between the two mice was recorded for 10 minutes with EthoVision software (Noldus). […]

The conditions of data set [9]: oral and topical administration, Chaves 2008; cited from earlier work.
The conditions of data set [10]: according to its MSDS; cited from earlier work.
In data set [11] the target is CB2 receptor (Homo sapiens, UniProt P34972). The conditions noted are these: Chicca A. et al; cited from earlier work.
Chain of CB2 receptor (P34972 whole entry): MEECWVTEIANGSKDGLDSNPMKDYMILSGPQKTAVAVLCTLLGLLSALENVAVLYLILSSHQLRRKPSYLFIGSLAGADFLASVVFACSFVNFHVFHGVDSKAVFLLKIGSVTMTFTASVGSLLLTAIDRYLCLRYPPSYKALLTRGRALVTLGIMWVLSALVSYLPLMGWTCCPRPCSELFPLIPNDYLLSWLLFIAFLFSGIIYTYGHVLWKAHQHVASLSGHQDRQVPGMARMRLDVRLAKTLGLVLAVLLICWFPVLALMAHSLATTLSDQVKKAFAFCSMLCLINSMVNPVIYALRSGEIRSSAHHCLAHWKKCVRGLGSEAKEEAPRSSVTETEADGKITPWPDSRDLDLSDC
For data set [12] the following is noted: Sköld et al. 2006; cited from earlier work.

Consider `C=CCc1ccc(O)c(-c2ccc(OC)c(CC=C)c2)c1` [MH, 4-O-methylhonokiol], for which the “dissolution of MH in SEDDS vehicle” value is “dissolved” in data set [1] (about 1% (g/vol) MH, solution warmed up to 55° C. for 10 min, vortexed 60 sec); “did not dissolve” in [1] (about 1% (g/vol) MH, vehicle warmed to 55° C., vortexed 60 sec); “did not dissolve” in data set [1] (about 5% (g/vol) MH, solution warmed up to 50° C. for 10 min); “dissolved” in data set [1] (about 5% (g/vol) MH, solution warmed up to 57° C. for 13 min, vortexed 180 sec); “did not dissolve” in data set [1] (about 5% (g/vol) MH, vehicle warmed to 42° C., vortexed 60 sec); “did not dissolve” in data set [1] (about 5% (g/vol) MH, vehicle warmed to 52° C., vortexed 100 sec). Besides, the “dissolution of MH in oral formulation” value in data set [2] (in V-01), in data set [2] (in V-02) and in data set [2] (in V-03) was “dissolved” in each case.
As to “trans-(1R,9S)-8-methylene4,11,11 trimethylbicyclo[7.2.0)]undec-4-ene [BCP]”, the “effect of 5 mg/kg PCP on the frequency of immobility in the forced swim test” value in data set [3] (10 mg/kg BCP in oil composition (canola oil), gavage twice a week for 3 weeks) was “did not reverse the effect”. In addition, the “reversing the frequency of climbing in the forced-swim test” value in data set [3] (BCP in oil, gavage) is on record as “ineffective”. For the same molecule, in data set [4], the “original compound consumed by oxidation” value is recorded as roughly 50%. Moreover, the body weight entry in data set [5] is recorded as “did not affect their body weight”. For the same molecule, the “effect of PCP on activity in the open field test” value in [6] is “reversed the effect of PCP”. The “effect of PCP in the forced-swim test” value in data set [7] (5 mg/kg BCP in SEDDS oral formulation) and in data set [7] (10 mg/kg BCP in SEDDS oral formulation) was “reversed the effect of PCP” in each case. In addition, in data set [8], the “effect of PCP in the social interaction test” value is on record as “reversed the effect of PCP”.
As to `C/C1=C\CC/C(C)=C/CC(C)(C)/C=C/C1` [alpha-humulene], the absorption entry in [9] was “rapid onset and relatively good absorption”. For the same molecule, in data set [10], the irritancy entry is “skin, eyes and respiratory irritant”. Also, in [11], the CB2 receptor binding result was “inactivity”.
Consider `C=C1CC[C@H]2O[C@]2(C)CC[C@@H]2[C@@H]1CC2(C)C` [BCP oxide, Caryophyllene oxide], for which the allergenicity result in data set [12] is given as “allergen”. Further, the CB2 receptor binding entry in data set [11] is listed as “inactivity”.

The values above are taken from US20190060300A1, “Self-Emulsifying Compositions of CB2 Receptor Modulators” (priority 2016, published 2019).
